Measured values as given in ChEMBL document CHEMBL1201862, “PubChem BioAssay data set” (2004).
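All cell lines were grown in 96-well plates and treated with compound for 48 hours. GI50 marks 50% less growth.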 Calls of active or inactive are those of the source. Rule as the data show it: active = GI50 up to about 1.1 µM and inactive = higher.

How the values were obtained:
Assay in all cases: NCI-60 cell line screen, 48 h
SNB-78 = system: SNB-78
LXFL 529 = system: LXFL 529
MDA-MB-435 = system: MDA-MB-435
MDA-N = system: MDA-N
Hs-578T = system: Hs-578T
XF498 = system: XF498
786-0 = system: 786-0
HOP-18 = system: HOP-18
RXF 631 = system: RXF 631

Measured: GI50

CC12CCC(=O)N1c1cnccc1N2 (stereo not drawn)
inactive: SNB-78 > 100 µM | LXFL 529 > 100 µM

CCOc1ncn(-c2ccc(NC(=S)Nc3cccc(O)c3)cc2)n1
inactive: MDA-MB-435 > 100 µM | MDA-N > 100 µM

CC(=O)O[C@H]1CC[C@H]2[C@@H]3CCC(C(C)=O)[C@H](C(=O)O)[C@H]3CC[C@]12C (stereo partly drawn)
inactive: MDA-MB-435 > 100 µM | Hs-578T > 100 µM

CC1(C)OC[C@H](C(=N)OCc2ccccc2)O1
inactive: SNB-78 > 100 µM | LXFL 529 > 100 µM | XF498 > 100 µM

N#C/C(=C\c1ccc(Cl)cc1)c1nc2ccccc2c(=O)[nH]1
inactive: MDA-MB-435 > 100 µM | 786-0 44.4 µM | Hs-578T 17.9 µM | MDA-N > 100 µM

O=C(NN1C(=O)CSC1c1ccc(C(F)(F)F)cc1)c1ccncc1 (stereo not drawn)
inactive: SNB-78 > 31.6 µM | HOP-18 > 100 µM | XF498 > 100 µM

O=c1oc2ccccc2n1P(=O)(Oc1ccc(Cl)cc1)n1c(=O)oc2ccccc21
inactive: SNB-78 > 100 µM | HOP-18 > 100 µM

CCCCCCCCCCCCCCCc1nnc(S)[nH]1
inactive: SNB-78 > 100 µM | LXFL 529 30.5 µM | XF498 > 100 µM

Nc1n[nH]c2c1Cc1c(n(Cc3ccc(Cl)cc3)c3ccccc13)C(=O)N2
inactive: MDA-MB-435 3.71 µM | Hs-578T 13.3 µM | MDA-N 2.78 µM

CN1C(=O)C(C#N)C2C[C@@]1(C)Oc1ccccc12 (stereo partly drawn)
inactive: MDA-MB-435 > 100 µM | 786-0 > 100 µM | Hs-578T > 100 µM | MDA-N > 100 µM

C=C1CC[C@@H](Br)C(C)(C)[C@]12CCC(C)(O)C(Cl)C2 (stereo partly drawn)
inactive: SNB-78 52.5 µM | RXF 631 18.5 µM | HOP-18 18.8 µM

CC(=O)/N=C1\N/C(=C/c2cc([N+](=O)[O-])ccc2O)CN1C
inactive: MDA-MB-435 > 100 µM | 786-0 > 100 µM | MDA-N > 100 µM

CCOC(=O)CCc1c(C)c2c(O)cc(O)cc2oc1=O
inactive: SNB-78 > 100 µM | HOP-18 > 80.9 µM | XF498 > 100 µM

CCOC(=O)/C=C1/C(CCCOCc2ccccc2)C2CCCC23CC2(CCN13)OCCO2 (stereo not drawn)
inactive: SNB-78 25.9 µM | LXFL 529 22.2 µM | RXF 631 30.1 µM | HOP-18 21.3 µM | XF498 12.3 µM

CC1=C(SCCO)C(=O)c2ccccc2C1=O
inactive: MDA-MB-435 11.6 µM | Hs-578T 12.2 µM | MDA-N 5.09 µM

O=C1OC(CN2CCOCC2)CN1/N=C/c1ccc([N+](=O)[O-])o1 (stereo not drawn) [FURALTADONE]
inactive: MDA-MB-435 18 µM | 786-0 62.7 µM | Hs-578T 54.6 µM
